{
  "source": "patent US10799522B2",
  "about": "“Compositions and methods relating to galectin detection” (Wayne State University, priority 2015, dated 2020)",
  "experiment": "radiation dosimetry estimates for human patients",
  "conditions": "adult male",
  "data": [
    {"smiles": "OCC1OC(SC2OC(CO)C(O)C(n3cc(-c4cccc([18F])c4)nn3)C2O)C(O)C(n2cc(-c3cccc(F)c3)nn2)C1O", "note": "[[^18F]FPTDG, 3-(3-[^18F]fluorophenyltriazolyl)-3-deoxy-3′-(3-fluorophenyltriazolyl)-3′-deoxy-1-thio-β-D-digalactopyranoside]", "values": [
      {"measurement": "Effective Dose", "result": "Effective Dose 6.74 mSv per 370 MBq dose or 10 mCi"},
      {"measurement": "Effective Dose Equivalent", "result": "Effective Dose Equivalent 6.12 mSv per 370 MBq dose or 10 mCi"},
      {"measurement": "Estimated organ dose, Alpha", "setting": "Total Body", "result": "0 mSv per 370 MBq dose or 10 mCi"},
      {"measurement": "Estimated organ dose, Beta", "setting": "Total Body", "result": "1.79 mSv per 370 MBq dose or 10 mCi"},
      {"measurement": "Estimated organ dose, ED Cont.", "setting": "Total Body", "result": "0.00 mSv per 370 MBq dose or 10 mCi"},
      {"measurement": "Estimated organ dose, EDE Cont.", "setting": "Total Body", "result": "0.00 mSv per 370 MBq dose or 10 mCi"},
      {"measurement": "Estimated organ dose, Photon", "setting": "Total Body", "result": "2.67 mSv per 370 MBq dose or 10 mCi"},
      {"measurement": "Estimated organ dose, Total", "setting": "Total Body", "result": "4.46 mSv per 370 MBq dose or 10 mCi"},
      {"measurement": "Estimated organ dose, Alpha", "setting": "target organ Adrenals", "result": "0 mSv per 370 MBq dose or 10 mCi"},
      {"measurement": "Estimated organ dose, Beta", "setting": "target organ Adrenals", "result": "1.70 mSv per 370 MBq dose or 10 mCi"},
      {"measurement": "Estimated organ dose, ED Cont.", "setting": "target organ Adrenals", "result": "0.03 mSv per 370 MBq dose or 10 mCi"},
      {"measurement": "Estimated organ dose, EDE Cont.", "setting": "target organ Adrenals", "result": "0.00 mSv per 370 MBq dose or 10 mCi"},
      {"measurement": "Estimated organ dose, Photon", "setting": "target organ Adrenals", "result": "3.33 mSv per 370 MBq dose or 10 mCi"},
      {"measurement": "Estimated organ dose, Total", "setting": "target organ Adrenals", "result": "5.03 mSv per 370 MBq dose or 10 mCi"},
      {"measurement": "Estimated organ dose, Alpha", "setting": "target organ Brain", "result": "0 mSv per 370 MBq dose or 10 mCi"},
      {"measurement": "Estimated organ dose, Beta", "setting": "target organ Brain", "result": "1.70 mSv per 370 MBq dose or 10 mCi"},
      {"measurement": "Estimated organ dose, ED Cont.", "setting": "target organ Brain", "result": "0.02 mSv per 370 MBq dose or 10 mCi"},
      {"measurement": "Estimated organ dose, EDE Cont.", "setting": "target organ Brain", "result": "0.00 mSv per 370 MBq dose or 10 mCi"},
      {"measurement": "Estimated organ dose, Photon", "setting": "target organ Brain", "result": "2.22 mSv per 370 MBq dose or 10 mCi"},
      {"measurement": "Estimated organ dose, Total", "setting": "target organ Brain", "result": "3.92 mSv per 370 MBq dose or 10 mCi"},
      {"measurement": "Estimated organ dose, Alpha", "setting": "target organ Breasts", "result": "0 mSv per 370 MBq dose or 10 mCi"},
      {"measurement": "Estimated organ dose, Beta", "setting": "target organ Breasts", "result": "1.70 mSv per 370 MBq dose or 10 mCi"},
      {"measurement": "Estimated organ dose, ED Cont.", "setting": "target organ Breasts", "result": "0.18 mSv per 370 MBq dose or 10 mCi"},
      {"measurement": "Estimated organ dose, EDE Cont.", "setting": "target organ Breasts", "result": "0.54 mSv per 370 MBq dose or 10 mCi"},
      {"measurement": "Estimated organ dose, Photon", "setting": "target organ Breasts", "result": "1.87 mSv per 370 MBq dose or 10 mCi"},
      {"measurement": "Estimated organ dose, Total", "setting": "target organ Breasts", "result": "3.57 mSv per 370 MBq dose or 10 mCi"},
      {"measurement": "Estimated organ dose, Alpha", "setting": "target organ Gallbladder Wall", "result": "0 mSv per 370 MBq dose or 10 mCi"},
      {"measurement": "Estimated organ dose, Beta", "setting": "target organ Gallbladder Wall", "result": "1.70 mSv per 370 MBq dose or 10 mCi"},
      {"measurement": "Estimated organ dose, ED Cont.", "setting": "target organ Gallbladder Wall", "result": "0.00 mSv per 370 MBq dose or 10 mCi"},
      {"measurement": "Estimated organ dose, EDE Cont.", "setting": "target organ Gallbladder Wall", "result": "0.00 mSv per 370 MBq dose or 10 mCi"},
      {"measurement": "Estimated organ dose, Photon", "setting": "target organ Gallbladder Wall", "result": "3.7 mSv per 370 MBq dose or 10 mCi"},
      {"measurement": "Estimated organ dose, Total", "setting": "target organ Gallbladder Wall", "result": "5.40 mSv per 370 MBq dose or 10 mCi"},
      {"measurement": "Estimated organ dose, Alpha", "setting": "target organ Heart Wall", "result": "0 mSv per 370 MBq dose or 10 mCi"},
      {"measurement": "Estimated organ dose, Beta", "setting": "target organ Heart Wall", "result": "1.72 mSv per 370 MBq dose or 10 mCi"},
      {"measurement": "Estimated organ dose, ED Cont.", "setting": "target organ Heart Wall", "result": "0.00 mSv per 370 MBq dose or 10 mCi"},
      {"measurement": "Estimated organ dose, EDE Cont.", "setting": "target organ Heart Wall", "result": "0.00 mSv per 370 MBq dose or 10 mCi"},
      {"measurement": "Estimated organ dose, Photon", "setting": "target organ Heart Wall", "result": "2.76 mSv per 370 MBq dose or 10 mCi"},
      {"measurement": "Estimated organ dose, Total", "setting": "target organ Heart Wall", "result": "4.48 mSv per 370 MBq dose or 10 mCi"},
      {"measurement": "Estimated organ dose, Alpha", "setting": "target organ Kidneys", "result": "0 mSv per 370 MBq dose or 10 mCi"},
      {"measurement": "Estimated organ dose, Beta", "setting": "target organ Kidneys", "result": "1.70 mSv per 370 MBq dose or 10 mCi"},
      {"measurement": "Estimated organ dose, ED Cont.", "setting": "target organ Kidneys", "result": "0.02 mSv per 370 MBq dose or 10 mCi"},
      {"measurement": "Estimated organ dose, EDE Cont.", "setting": "target organ Kidneys", "result": "0.00 mSv per 370 MBq dose or 10 mCi"},
      {"measurement": "Estimated organ dose, Photon", "setting": "target organ Kidneys", "result": "3.24 mSv per 370 MBq dose or 10 mCi"},
      {"measurement": "Estimated organ dose, Total", "setting": "target organ Kidneys", "result": "4.94 mSv per 370 MBq dose or 10 mCi"},
      {"measurement": "Estimated organ dose, Alpha", "setting": "target organ LLI Wall", "result": "0 mSv per 370 MBq dose or 10 mCi"},
      {"measurement": "Estimated organ dose, Beta", "setting": "target organ LLI Wall", "result": "9.25 mSv per 370 MBq dose or 10 mCi"},
      {"measurement": "Estimated organ dose, ED Cont.", "setting": "target organ LLI Wall", "result": "1.72 mSv per 370 MBq dose or 10 mCi"},
      {"measurement": "Estimated organ dose, EDE Cont.", "setting": "target organ LLI Wall", "result": "0.86 mSv per 370 MBq dose or 10 mCi"},
      {"measurement": "Estimated organ dose, Photon", "setting": "target organ LLI Wall", "result": "5.06 mSv per 370 MBq dose or 10 mCi"},
      {"measurement": "Estimated organ dose, Total", "setting": "target organ LLI Wall", "result": "14.30 mSv per 370 MBq dose or 10 mCi"},
      {"measurement": "Estimated organ dose, Alpha", "setting": "target organ Liver", "result": "0 mSv per 370 MBq dose or 10 mCi"},
      {"measurement": "Estimated organ dose, Beta", "setting": "target organ Liver", "result": "1.30 mSv per 370 MBq dose or 10 mCi"},
      {"measurement": "Estimated organ dose, ED Cont.", "setting": "target organ Liver", "result": "0.20 mSv per 370 MBq dose or 10 mCi"},
      {"measurement": "Estimated organ dose, EDE Cont.", "setting": "target organ Liver", "result": "0.00 mSv per 370 MBq dose or 10 mCi"},
      {"measurement": "Estimated organ dose, Photon", "setting": "target organ Liver", "result": "2.79 mSv per 370 MBq dose or 10 mCi"},
      {"measurement": "Estimated organ dose, Total", "setting": "target organ Liver", "result": "4.08 mSv per 370 MBq dose or 10 mCi"},
      {"measurement": "Estimated organ dose, Alpha", "setting": "target organ Lungs", "result": "0 mSv per 370 MBq dose or 10 mCi"},
      {"measurement": "Estimated organ dose, Beta", "setting": "target organ Lungs", "result": "0.03 mSv per 370 MBq dose or 10 mCi"},
      {"measurement": "Estimated organ dose, ED Cont.", "setting": "target organ Lungs", "result": "0.28 mSv per 370 MBq dose or 10 mCi"},
      {"measurement": "Estimated organ dose, EDE Cont.", "setting": "target organ Lungs", "result": "0.28 mSv per 370 MBq dose or 10 mCi"},
      {"measurement": "Estimated organ dose, Photon", "setting": "target organ Lungs", "result": "2.26 mSv per 370 MBq dose or 10 mCi"},
      {"measurement": "Estimated organ dose, Total", "setting": "target organ Lungs", "result": "2.29 mSv per 370 MBq dose or 10 mCi"},
      {"measurement": "Estimated organ dose, Alpha", "setting": "target organ Muscle", "result": "0 mSv per 370 MBq dose or 10 mCi"},
      {"measurement": "Estimated organ dose, Beta", "setting": "target organ Muscle", "result": "1.70 mSv per 370 MBq dose or 10 mCi"},
      {"measurement": "Estimated organ dose, ED Cont.", "setting": "target organ Muscle", "result": "0.02 mSv per 370 MBq dose or 10 mCi"},
      {"measurement": "Estimated organ dose, EDE Cont.", "setting": "target organ Muscle", "result": "0.00 mSv per 370 MBq dose or 10 mCi"},
      {"measurement": "Estimated organ dose, Photon", "setting": "target organ Muscle", "result": "2.68 mSv per 370 MBq dose or 10 mCi"},
      {"measurement": "Estimated organ dose, Total", "setting": "target organ Muscle", "result": "4.38 mSv per 370 MBq dose or 10 mCi"},
      {"measurement": "Estimated organ dose, Alpha", "setting": "target organ Osteogenic Cells", "result": "0 mSv per 370 MBq dose or 10 mCi"},
      {"measurement": "Estimated organ dose, Beta", "setting": "target organ Osteogenic Cells", "result": "3.64 mSv per 370 MBq dose or 10 mCi"},
      {"measurement": "Estimated organ dose, ED Cont.", "setting": "target organ Osteogenic Cells", "result": "0.07 mSv per 370 MBq dose or 10 mCi"},
      {"measurement": "Estimated organ dose, EDE Cont.", "setting": "target organ Osteogenic Cells", "result": "0.21 mSv per 370 MBq dose or 10 mCi"},
      {"measurement": "Estimated organ dose, Photon", "setting": "target organ Osteogenic Cells", "result": "3.17 mSv per 370 MBq dose or 10 mCi"},
      {"measurement": "Estimated organ dose, Total", "setting": "target organ Osteogenic Cells", "result": "6.82 mSv per 370 MBq dose or 10 mCi"},
      {"measurement": "Estimated organ dose, Alpha", "setting": "target organ Ovaries", "result": "0 mSv per 370 MBq dose or 10 mCi"},
      {"measurement": "Estimated organ dose, Beta", "setting": "target organ Ovaries", "result": "1.70 mSv per 370 MBq dose or 10 mCi"}
    ]}
  ]
}
